According to PubChem BioAssay (NCI):
Several values for one entry are separate records, joined by “and”; a condition that tells them apart may be missing. Identical values can stand only once.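 Briefly, cells in 96-well plates were exposed to five compound concentrations for 48 h, and endpoints were estimated by linear interpolation. At the GI50, growth is halved. Definition used: TGI = concentration required for complete inhibition of growth.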

What was measured:
Experiment in all cases: NCI anticancer screen, dose series, 48 h
786-0 renal = tested on: 786-0 renal
A549 NSCLC = tested on: A549 NSCLC
ACHN renal = tested on: ACHN renal
COLO 205 colon = tested on: COLO 205 colon
DLD-1 colon = tested on: DLD-1 colon
DMS 114 small cell lung = tested on: DMS 114 small cell lung
DMS 273 small cell lung = tested on: DMS 273 small cell lung
EKVX NSCLC = tested on: EKVX NSCLC
HCC-2998 colon = tested on: HCC-2998 colon
HCT-116 colon = tested on: HCT-116 colon
HCT-15 colon = tested on: HCT-15 colon
HOP-18 NSCLC = tested on: HOP-18 NSCLC
HOP-62 NSCLC = tested on: HOP-62 NSCLC
HOP-92 NSCLC = tested on: HOP-92 NSCLC
HT29 colon = tested on: HT29 colon
IGROV1 ovarian = tested on: IGROV1 ovarian
KM12 colon = tested on: KM12 colon
KM20L2 colon = tested on: KM20L2 colon
LOX IMVI melanoma = tested on: LOX IMVI melanoma
LXFL 529 NSCLC = tested on: LXFL 529 NSCLC
M14 melanoma = tested on: M14 melanoma
M19-MEL melanoma = tested on: M19-MEL melanoma
MALME-3M melanoma = tested on: MALME-3M melanoma
MOLT-4 leukemia = tested on: MOLT-4 leukemia
NCI-H226 lung = tested on: NCI-H226 lung
NCI-H23 lung = tested on: NCI-H23 lung
NCI-H460 lung = tested on: NCI-H460 lung
NCI-H522 lung = tested on: NCI-H522 lung
OVCAR-3 ovarian = tested on: OVCAR-3 ovarian
OVCAR-5 ovarian = tested on: OVCAR-5 ovarian
OVCAR-8 ovarian = tested on: OVCAR-8 ovarian
RPMI-8226 leukemia = tested on: RPMI-8226 leukemia
RXF 393 renal = tested on: RXF 393 renal
SF-268 CNS = tested on: SF-268 CNS
SF-295 CNS = tested on: SF-295 CNS
SF-539 CNS = tested on: SF-539 CNS
SK-MEL-2 melanoma = tested on: SK-MEL-2 melanoma
SK-MEL-28 melanoma = tested on: SK-MEL-28 melanoma
SK-MEL-5 melanoma = tested on: SK-MEL-5 melanoma
SK-OV-3 ovarian = tested on: SK-OV-3 ovarian
SN12C renal = tested on: SN12C renal
SNB-19 CNS = tested on: SNB-19 CNS
SNB-75 CNS = tested on: SNB-75 CNS
SNB-78 CNS = tested on: SNB-78 CNS
SR leukemia = tested on: SR leukemia
SW-620 colon = tested on: SW-620 colon
TK-10 renal = tested on: TK-10 renal
U251 CNS = tested on: U251 CNS
UACC-257 melanoma = tested on: UACC-257 melanoma
UACC-62 melanoma = tested on: UACC-62 melanoma
UO-31 renal = tested on: UO-31 renal
XF 498 CNS = tested on: XF 498 CNS
A498 renal = tested on: A498 renal
CAKI-1 renal = tested on: CAKI-1 renal
CCRF-CEM leukemia = tested on: CCRF-CEM leukemia
HL-60(TB) leukemia = tested on: HL-60(TB) leukemia
K-562 leukemia = tested on: K-562 leukemia
OVCAR-4 ovarian = tested on: OVCAR-4 ovarian

`COc1ccc(-c2ccccc2)c(N/N=C2\CCCNC2=O)c1` showed a TGI (786-0 renal) greater than 100 µM, a TGI (A549 NSCLC) of 27 µM and a TGI (ACHN renal) greater than 100 µM. The TGI (COLO 205 colon) was greater than 100 µM, the TGI (DLD-1 colon) was greater than 100 µM and the TGI (DMS 114 small cell lung) was greater than 100 µM. The TGI (DMS 273 small cell lung) was greater than 100 µM, the TGI (EKVX NSCLC) was greater than 100 µM and the TGI (HCC-2998 colon) was greater than 100 µM. The TGI (HCT-116 colon) was 25.8 µM, the TGI (HCT-15 colon) was greater than 100 µM and the TGI (HOP-18 NSCLC) was greater than 100 µM. For the same compound, the TGI (HOP-62 NSCLC) was 87.1 µM, the TGI (HOP-92 NSCLC) was greater than 100 µM and the TGI (HT29 colon) was greater than 100 µM. It also gave a TGI (IGROV1 ovarian) greater than 100 µM, a TGI (KM12 colon) greater than 100 µM and a TGI (KM20L2 colon) greater than 100 µM. For the same compound, the TGI (LOX IMVI melanoma) was greater than 100 µM, the TGI (LXFL 529 NSCLC) was greater than 100 µM and the TGI (M14 melanoma) was greater than 100 µM. For the same compound, the TGI (M19-MEL melanoma) was greater than 100 µM, the TGI (MALME-3M melanoma) was greater than 100 µM and the TGI (MOLT-4 leukemia) was greater than 100 µM. It also gave a TGI (NCI-H226 lung) greater than 100 µM, a TGI (NCI-H23 lung) greater than 100 µM and a TGI (NCI-H460 lung) greater than 100 µM. It also gave a TGI (NCI-H522 lung) greater than 100 µM, a TGI (OVCAR-3 ovarian) greater than 100 µM and a TGI (OVCAR-5 ovarian) greater than 100 µM. For the same compound, the TGI (OVCAR-8 ovarian) was greater than 100 µM, the TGI (RPMI-8226 leukemia) was greater than 100 µM and the TGI (RXF 393 renal) was 27.5 µM. It also gave a TGI (SF-268 CNS) greater than 100 µM, a TGI (SF-295 CNS) greater than 100 µM and a TGI (SF-539 CNS) greater than 100 µM. The TGI (SK-MEL-2 melanoma) was greater than 100 µM, the TGI (SK-MEL-28 melanoma) was greater than 100 µM and the TGI (SK-MEL-5 melanoma) was greater than 100 µM. The TGI (SK-OV-3 ovarian) was greater than 100 µM, the TGI (SN12C renal) was greater than 100 µM and the TGI (SNB-19 CNS) was greater than 100 µM. For the same compound, the TGI (SNB-75 CNS) was greater than 100 µM, the TGI (SNB-78 CNS) was greater than 100 µM and the TGI (SR leukemia) was greater than 100 µM. The TGI (SW-620 colon) was greater than 100 µM, the TGI (TK-10 renal) was greater than 100 µM and the TGI (U251 CNS) was greater than 100 µM. It also gave a TGI (UACC-257 melanoma) greater than 100 µM, a TGI (UACC-62 melanoma) greater than 100 µM and a TGI (UO-31 renal) greater than 100 µM. For the same compound, the TGI (XF 498 CNS) was 87.7 µM.

With `COc1cc2c(c(OC)c1OC)-c1ccc(SC)c(=O)cc1C(CC(=O)Oc1ccc(F)cc1)C2` (centres undefined) the GI50 (786-0 renal) was 0.325 µM, the TGI (786-0 renal) was 75 µM and > 100 µM and the GI50 (A498 renal) was 0.0432 µM. For the same compound, the GI50 (A549 NSCLC) was 0.391 µM, the GI50 (ACHN renal) was 0.587 µM and the TGI (ACHN renal) was 75 µM and > 100 µM. The GI50 (CAKI-1 renal) was 1.9 µM, the TGI (CAKI-1 renal) was 10 µM and > 100 µM and the GI50 (CCRF-CEM leukemia) was 0.367 µM. For the same compound, the TGI (CCRF-CEM leukemia) was 27.5 µM and > 100 µM, the GI50 (COLO 205 colon) was 0.307 µM and the TGI (COLO 205 colon) was 0.305 µM and 1.03 µM. The TGI (DLD-1 colon) was 75 µM and 10.1 µM, the GI50 (DMS 114 small cell lung) was 0.0325 µM and the GI50 (DMS 273 small cell lung) was 0.262 µM. For the same compound, the GI50 (EKVX NSCLC) was 0.981 µM, the TGI (EKVX NSCLC) was 75 µM and > 100 µM and the GI50 (HCC-2998 colon) was 0.161 µM. For the same compound, the TGI (HCC-2998 colon) was 0.325 µM and 0.46 µM, the GI50 (HCT-116 colon) was 0.323 µM and the TGI (HCT-116 colon) was 0.306 µM and 1.08 µM. For the same compound, the GI50 (HCT-15 colon) was 0.384 µM, the TGI (HCT-15 colon) was 0.989 µM and 2.86 µM and the TGI (HL-60(TB) leukemia) was 0.768 µM. For the same compound, the GI50 (HOP-18 NSCLC) was greater than 100 µM, the TGI (HOP-18 NSCLC) was 75 µM and > 100 µM and the GI50 (HOP-62 NSCLC) was 0.41 µM. For the same compound, the TGI (HOP-62 NSCLC) was 54.6 µM and 49.6 µM, the GI50 (HOP-92 NSCLC) was 1.91 µM and the TGI (HOP-92 NSCLC) was 75 µM and 97.7 µM. For the same compound, the GI50 (HT29 colon) was 0.258 µM, the TGI (HT29 colon) was 0.392 µM and 0.675 µM and the GI50 (IGROV1 ovarian) was 0.293 µM. For the same compound, the TGI (IGROV1 ovarian) was 75 µM and > 100 µM, the GI50 (K-562 leukemia) was 0.351 µM and the TGI (K-562 leukemia) was 75 µM and > 100 µM. The TGI (KM12 colon) was 2.37 µM, the GI50 (KM20L2 colon) was 0.189 µM and the TGI (KM20L2 colon) was 0.239 µM and 0.363 µM. The GI50 (LOX IMVI melanoma) was 0.392 µM, the TGI (LOX IMVI melanoma) was 8.26 µM and 10.8 µM and the GI50 (LXFL 529 NSCLC) was 0.507 µM. The TGI (M14 melanoma) was 14.4 µM, the GI50 (M19-MEL melanoma) was 0.338 µM and the TGI (M19-MEL melanoma) was 14.1 µM and 23.1 µM. The TGI (MALME-3M melanoma) was 75 µM and > 100 µM, the GI50 (MOLT-4 leukemia) was 0.518 µM and the TGI (MOLT-4 leukemia) was 27.7 µM and > 100 µM. For the same compound, the GI50 (NCI-H226 lung) was 0.201 µM, the TGI (NCI-H226 lung) was 0.612 µM and 0.677 µM and the GI50 (NCI-H23 lung) was 0.287 µM. For the same compound, the TGI (NCI-H23 lung) was 0.667 µM and 1.04 µM, the GI50 (NCI-H460 lung) was 0.346 µM and the TGI (NCI-H460 lung) was 1.83 µM and 1.14 µM. The GI50 (NCI-H522 lung) was 0.217 µM, the TGI (NCI-H522 lung) was 0.31 µM and 0.61 µM and the TGI (OVCAR-3 ovarian) was 0.608 µM. For the same compound, the GI50 (OVCAR-4 ovarian) was 5.4 µM, the TGI (OVCAR-4 ovarian) was 75 µM and > 100 µM and the GI50 (OVCAR-5 ovarian) was 0.973 µM. The TGI (OVCAR-5 ovarian) was 75 µM and > 100 µM, the GI50 (OVCAR-8 ovarian) was 0.28 µM and the TGI (RPMI-8226 leukemia) was 12.2 µM and 11 µM. The GI50 (RXF 393 renal) was 0.0426 µM, the GI50 (SF-268 CNS) was 0.461 µM and the TGI (SF-268 CNS) was 75 µM and 15 µM. The GI50 (SF-295 CNS) was 0.286 µM, the TGI (SF-295 CNS) was 75 µM and > 100 µM and the TGI (SF-539 CNS) was 0.656 µM. The GI50 (SK-MEL-2 melanoma) was 0.449 µM, the TGI (SK-MEL-2 melanoma) was 0.91 µM and 4.17 µM and the TGI (SK-MEL-28 melanoma) was greater than 100 µM. The GI50 (SK-MEL-5 melanoma) was 0.293 µM, the TGI (SK-MEL-5 melanoma) was 1.1 µM and 3.38 µM and the GI50 (SK-OV-3 ovarian) was 0.04 µM. The TGI (SK-OV-3 ovarian) was 24.9 µM and 11.6 µM, the TGI (SN12C renal) was 20.2 µM and 7.79 µM and the GI50 (SNB-19 CNS) was 0.96 µM. The TGI (SNB-19 CNS) was 75 µM and > 100 µM, the GI50 (SNB-78 CNS) was 0.0891 µM and the TGI (SNB-78 CNS) was 75 µM and 73.6 µM. The GI50 (SR leukemia) was 0.124 µM, the TGI (SR leukemia) was 3.14 µM and 24 µM and the GI50 (SW-620 colon) was 0.358 µM. For the same compound, the TGI (SW-620 colon) was 11.1 µM and > 100 µM, the GI50 (TK-10 renal) was 21.5 µM and the TGI (TK-10 renal) was 75 µM and > 100 µM. The GI50 (U251 CNS) was 0.41 µM, the TGI (U251 CNS) was 1.41 µM and 2.35 µM and the GI50 (UACC-257 melanoma) was 0.264 µM. The TGI (UACC-257 melanoma) was 75 µM and > 100 µM, the GI50 (UACC-62 melanoma) was 0.0509 µM and the TGI (UACC-62 melanoma) was 0.73 µM and 0.539 µM. For the same compound, the GI50 (UO-31 renal) was 2.49 µM, the TGI (UO-31 renal) was 75 µM and > 100 µM and the GI50 (XF 498 CNS) was 0.442 µM. For the same compound, the TGI (XF 498 CNS) was 7.03 µM and 5.13 µM.
